The supplement of paper PMC10307832

How the values were obtained:
Assay in all cases: relative viability (nuclei count vs DMSO), 5 days (fraction); higher = more cells survive
RERF-LC-KJ = tested on: RERF-LC-KJ
Procedure, shortened: (§1)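 The day after seeding in 1536-well plates, lung cancer cell lines were treated by pin tool with a single drug, or with a fixed anchor-drug dose together with five library-drug doses (not always all listed) in √10 steps. After 5 days, a combined fix-and-stain solution (final 0.05% Triton X-100, 1% formaldehyde, 1 ug/ml Hoechst) was added. Nuclei counted on 4× images gave relative viability as treated counts over vehicle counts, reported as the median of duplicate plates.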

EKVX = tested on: EKVX
Procedure, shortened: as §1

NCI-H2405 = tested on: NCI-H2405
Procedure, shortened: as §1

NCI-H1666 = tested on: NCI-H1666
Procedure, shortened: as §1

NCI-H838 = tested on: NCI-H838
Procedure, shortened: as §1

COR-L23 = tested on: COR-L23
Procedure, shortened: as §1

HARA = tested on: HARA
Procedure, shortened: as §1

BEN = tested on: BEN
Procedure, shortened: as §1

NCI-H460 = tested on: NCI-H460
Procedure, shortened: as §1

NCI-H1993 = tested on: NCI-H1993
Procedure, shortened: as §1

LOU-NH91 = tested on: LOU-NH91
Procedure, shortened: as §1

NCI-H1975 = tested on: NCI-H1975
Procedure, shortened: as §1

NCI-H650 = tested on: NCI-H650
Procedure, shortened: as §1

NCI-H1915 = tested on: NCI-H1915
Procedure, shortened: as §1

NCI-H2228 = tested on: NCI-H2228
Procedure, shortened: as §1

NCI-H1650 = tested on: NCI-H1650
Procedure, shortened: as §1

NCI-H2023 = tested on: NCI-H2023
Procedure, shortened: as §1

LU99A = tested on: LU99A
Procedure, shortened: as §1

A-427 = tested on: A-427
Procedure, shortened: as §1

SW 1573 = tested on: SW 1573
Procedure, shortened: as §1

Question: For `COCC1(CO)C(=O)C2CCN1CC2` (stereo unspecified) [PRIMA-1MET] + C[C@@H](Oc1cc(-c2cnn(C3CCNCC3)c2)cnc1N)c1c(Cl)ccc(F)c1Cl [Crizotinib] (partner 1 µM), which relative viability (RERF-LC-KJ; first compound 0.2 µM) is on record?
Answer: 0.868

Question: And the relative viability (RERF-LC-KJ; first compound 0.6325 µM)?
Answer: 0.767

Question: What about the relative viability (RERF-LC-KJ; first compound 2 µM) of the same compound?
Answer: 0.86

Question: What about the relative viability (RERF-LC-KJ; first compound 6.325 µM) of the same compound?
Answer: 0.85

Question: And the relative viability (RERF-LC-KJ; first compound 20 µM)?
Answer: 0.847

Question: And the relative viability (EKVX; first compound 0.2 µM)?
Answer: 1.11

Question: And the relative viability (EKVX; first compound 0.6325 µM)?
Answer: 0.893

Question: What about the relative viability (EKVX; first compound 2 µM) of the same compound?
Answer: 0.665

Question: What about the relative viability (EKVX; first compound 6.325 µM) of the same compound?
Answer: 0.997

Question: What about the relative viability (EKVX; first compound 20 µM) of the same compound?
Answer: 0.891

Question: What about the relative viability (NCI-H2405; first compound 0.2 µM) of the same compound?
Answer: 0.679

Question: And the relative viability (NCI-H2405; first compound 0.6325 µM)?
Answer: 0.847

Question: And the relative viability (NCI-H2405; first compound 6.325 µM)?
Answer: 0.818

Question: And the relative viability (NCI-H2405; first compound 20 µM)?
Answer: 0.452

Question: What about the relative viability (NCI-H1666; first compound 0.2 µM) of the same compound?
Answer: 1.15

Question: And the relative viability (NCI-H1666; first compound 0.6325 µM)?
Answer: 0.9

Question: What about the relative viability (NCI-H1666; first compound 2 µM) of the same compound?
Answer: 0.987

Question: What about the relative viability (NCI-H1666; first compound 6.325 µM) of the same compound?
Answer: 1.25

Question: And the relative viability (NCI-H1666; first compound 20 µM)?
Answer: 0.443

Question: And the relative viability (NCI-H838; first compound 0.2 µM)?
Answer: 1.06

Question: What about the relative viability (NCI-H838; first compound 0.6325 µM) of the same compound?
Answer: 0.755

Question: And the relative viability (NCI-H838; first compound 2 µM)?
Answer: 0.793

Question: What about the relative viability (NCI-H838; first compound 6.325 µM) of the same compound?
Answer: 0.906

Question: And the relative viability (NCI-H838; first compound 20 µM)?
Answer: 0.318

Question: What about the relative viability (COR-L23; first compound 0.2 µM) of the same compound?
Answer: 0.704

Question: What about the relative viability (COR-L23; first compound 0.6325 µM) of the same compound?
Answer: 0.612

Question: And the relative viability (COR-L23; first compound 2 µM)?
Answer: 0.61

Question: And the relative viability (COR-L23; first compound 6.325 µM)?
Answer: 0.565

Question: What about the relative viability (COR-L23; first compound 20 µM) of the same compound?
Answer: 0.0228

Question: What about the relative viability (HARA; first compound 0.2 µM) of the same compound?
Answer: 1.17

Question: What about the relative viability (HARA; first compound 0.6325 µM) of the same compound?
Answer: 1.04

Question: And the relative viability (HARA; first compound 6.325 µM)?
Answer: 0.987

Question: What about the relative viability (HARA; first compound 20 µM) of the same compound?
Answer: 0.99

Question: And the relative viability (BEN; first compound 0.2 µM)?
Answer: 0.973

Question: What about the relative viability (BEN; first compound 0.6325 µM) of the same compound?
Answer: 0.88

Question: What about the relative viability (BEN; first compound 6.325 µM) of the same compound?
Answer: 0.974

Question: What about the relative viability (BEN; first compound 20 µM) of the same compound?
Answer: 0.735

Question: And the relative viability (NCI-H460; first compound 0.2 µM)?
Answer: 1.45

Question: What about the relative viability (NCI-H460; first compound 0.6325 µM) of the same compound?
Answer: 0.579

Question: What about the relative viability (NCI-H460; first compound 2 µM) of the same compound?
Answer: 0.898

Question: And the relative viability (NCI-H460; first compound 6.325 µM)?
Answer: 0.0132

Question: What about the relative viability (NCI-H460; first compound 20 µM) of the same compound?
Answer: 0.0052

Question: What about the relative viability (NCI-H1993; first compound 0.2 µM) of the same compound?
Answer: 1.14

Question: What about the relative viability (NCI-H1993; first compound 0.6325 µM) of the same compound?
Answer: 0.892

Question: And the relative viability (NCI-H1993; first compound 2 µM)?
Answer: 0.738

Question: And the relative viability (NCI-H1993; first compound 6.325 µM)?
Answer: 0.883

Question: What about the relative viability (NCI-H1993; first compound 20 µM) of the same compound?
Answer: 0.822

Question: And the relative viability (LOU-NH91; first compound 0.2 µM)?
Answer: 0.788

Question: What about the relative viability (LOU-NH91; first compound 0.6325 µM) of the same compound?
Answer: 0.583

Question: And the relative viability (LOU-NH91; first compound 2 µM)?
Answer: 0.743

Question: What about the relative viability (LOU-NH91; first compound 6.325 µM) of the same compound?
Answer: 0.773

Question: And the relative viability (LOU-NH91; first compound 20 µM)?
Answer: 0.681

Question: What about the relative viability (NCI-H1975; first compound 0.2 µM) of the same compound?
Answer: 1.12

Question: What about the relative viability (NCI-H1975; first compound 0.6325 µM) of the same compound?
Answer: 0.962

Question: And the relative viability (NCI-H1975; first compound 2 µM)?
Answer: 0.938

Question: What about the relative viability (NCI-H1975; first compound 6.325 µM) of the same compound?
Answer: 0.939

Question: And the relative viability (NCI-H1975; first compound 20 µM)?
Answer: 0.828

Question: What about the relative viability (NCI-H650; first compound 0.2 µM) of the same compound?
Answer: 0.894

Question: And the relative viability (NCI-H650; first compound 2 µM)?
Answer: 0.616

Question: What about the relative viability (NCI-H650; first compound 6.325 µM) of the same compound?
Answer: 0.675

Question: What about the relative viability (NCI-H650; first compound 20 µM) of the same compound?
Answer: 0.109

Question: What about the relative viability (NCI-H1915; first compound 0.2 µM) of the same compound?
Answer: 0.975

Question: What about the relative viability (NCI-H1915; first compound 0.6325 µM) of the same compound?
Answer: 0.703

Question: And the relative viability (NCI-H1915; first compound 2 µM)?
Answer: 0.794

Question: What about the relative viability (NCI-H1915; first compound 6.325 µM) of the same compound?
Answer: 0.912

Question: And the relative viability (NCI-H1915; first compound 20 µM)?
Answer: 0.852

Question: What about the relative viability (NCI-H2228; first compound 0.2 µM) of the same compound?
Answer: 0.414

Question: And the relative viability (NCI-H2228; first compound 0.6325 µM)?
Answer: 0.455

Question: And the relative viability (NCI-H2228; first compound 2 µM)?
Answer: 0.444

Question: What about the relative viability (NCI-H2228; first compound 6.325 µM) of the same compound?
Answer: 0.547

Question: And the relative viability (NCI-H2228; first compound 20 µM)?
Answer: 0.0537

Question: What about the relative viability (NCI-H1650; first compound 0.2 µM) of the same compound?
Answer: 1.22

Question: What about the relative viability (NCI-H1650; first compound 0.6325 µM) of the same compound?
Answer: 1.02

Question: What about the relative viability (NCI-H1650; first compound 2 µM) of the same compound?
Answer: 1

Question: What about the relative viability (NCI-H1650; first compound 6.325 µM) of the same compound?
Answer: 0.992

Question: And the relative viability (NCI-H1650; first compound 20 µM)?
Answer: 0.659

Question: What about the relative viability (NCI-H2023; first compound 0.2 µM) of the same compound?
Answer: 0.764

Question: What about the relative viability (NCI-H2023; first compound 0.6325 µM) of the same compound?
Answer: 0.623

Question: What about the relative viability (NCI-H2023; first compound 2 µM) of the same compound?
Answer: 0.601

Question: What about the relative viability (NCI-H2023; first compound 6.325 µM) of the same compound?
Answer: 0.694

Question: And the relative viability (NCI-H2023; first compound 20 µM)?
Answer: 0.584

Question: What about the relative viability (LU99A; first compound 0.2 µM) of the same compound?
Answer: 0.564

Question: And the relative viability (LU99A; first compound 0.6325 µM)?
Answer: 0.475

Question: What about the relative viability (LU99A; first compound 2 µM) of the same compound?
Answer: 0.576

Question: What about the relative viability (LU99A; first compound 6.325 µM) of the same compound?
Answer: 0.501

Question: What about the relative viability (LU99A; first compound 20 µM) of the same compound?
Answer: 0.0737

Question: What about the relative viability (A-427; first compound 0.2 µM) of the same compound?
Answer: 0.935

Question: And the relative viability (A-427; first compound 0.6325 µM)?
Answer: 0.721

Question: And the relative viability (A-427; first compound 2 µM)?
Answer: 0.769

Question: What about the relative viability (A-427; first compound 6.325 µM) of the same compound?
Answer: 0.959

Question: What about the relative viability (A-427; first compound 20 µM) of the same compound?
Answer: 0.822

Question: What about the relative viability (SW 1573; first compound 0.2 µM) of the same compound?
Answer: 0.935

Question: And the relative viability (SW 1573; first compound 0.6325 µM)?
Answer: 0.571

Question: And the relative viability (SW 1573; first compound 2 µM)?
Answer: 0.843

Question: And the relative viability (SW 1573; first compound 6.325 µM)?
Answer: 0.276

Question: And the relative viability (SW 1573; first compound 20 µM)?
Answer: 0.0264
